Measurements from US20060063736A1, “Compositions and methods for inhibiting mucin-type O-linked glycosylation” (priority 2004, published 2006).

Tests used:
mppGalNAcT-3 = molecular target: T1, mppGalNAcT-3 (Mus musculus, UniProt P70419); test: ELLA for ppGalNAcTs, mppGalNAcT-3; type: biochemical, murine; settings: 20 μM UDP-GalNAc, 50 μM EA2 peptide 4
T1 construct: plasmids encoding truncated secreted ppGalNAcTs-1 to −5, -7, -10 and -11; made in house; host or cells: COS-7
T1 sequence (P70419 38-633 limits assumed): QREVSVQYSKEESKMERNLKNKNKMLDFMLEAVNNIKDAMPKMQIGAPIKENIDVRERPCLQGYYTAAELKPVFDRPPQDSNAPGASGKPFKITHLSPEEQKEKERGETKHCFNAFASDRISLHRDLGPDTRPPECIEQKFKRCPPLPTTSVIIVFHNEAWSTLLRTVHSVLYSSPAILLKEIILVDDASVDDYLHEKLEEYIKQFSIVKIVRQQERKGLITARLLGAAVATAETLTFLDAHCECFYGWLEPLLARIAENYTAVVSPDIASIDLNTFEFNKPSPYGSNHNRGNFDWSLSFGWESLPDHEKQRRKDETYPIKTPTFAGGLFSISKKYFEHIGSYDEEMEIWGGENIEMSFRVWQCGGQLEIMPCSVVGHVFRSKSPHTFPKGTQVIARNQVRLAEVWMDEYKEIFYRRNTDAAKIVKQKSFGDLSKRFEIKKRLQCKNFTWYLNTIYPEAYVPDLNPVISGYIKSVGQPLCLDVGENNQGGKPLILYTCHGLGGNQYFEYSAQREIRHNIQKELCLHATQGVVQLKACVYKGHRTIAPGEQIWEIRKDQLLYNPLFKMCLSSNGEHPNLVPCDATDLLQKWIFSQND
Procedure: COS-7 cells were transiently transfected with plasmids encoding truncated secreted ppGalNAcTs-1 to −5, -7, -10 and -11 as previously described. Hagen et al. (1997) J. Biol. Chem. 272:13843-13848. The crude conditioned medium was used as the enzyme source.
Standard reaction conditions for ppGalNAcT assays were as follows. The reaction mixture contained the following components in a final volume of 25 μL: 10 mM MnCl2, 40 mM sodium cacodylate, 40 mM β-mercaptoethanol, 0.1% Triton X-100, pH 6.5, 5 μL of conditioned media, and various concentrations of EA2 peptide 4, UDP-GalNAc and inhibitor. All uridine-based compounds were dissolved in dimethyl sulfoxide (DMSO). […] Reaction rates were linear over the period monitored (20-30 min).
96-Well NeutrAvidin-coated plates were prewashed 3 times with 200 μL of wash buffer (25 mM Tris, 150 mM NaCl, 0.1% bovine serum albumin (BSA) (w/v), and 0.05% Tween (v/v), pH 7.2). […] After 3 washes with 200 μL of PBS, bound HPA-HRP was quantified by the addition of 100 μL of TMB peroxide solution. […] HRP activity was terminated by the addition of 50 μL of 2 N H2SO4 and the resulting solution was analyzed at 450 nm using a UV/Vis microtiter plate reader. The amount of product generated by the ppGalNAcT was extrapolated from absorbance values using an equation fit to the standard curve derived from Origin 6.1 software.

Jurkat cells = test: Annexin-V staining of Jurkat cells (apoptosis); type: cell-based, human; settings: 2 d treatment
Procedure: Jurkat cells were seeded at 250,000 cells/well (determined by Coulter cell counter) in 12-well polystyrene tissue culture plates in 1.0 mL of media and treated with various concentrations of 1-68A or 2-68A from 50 mM dimethyl sulfoxide (DMSO) stock solutions or doxorubicin or campothecin from 1 mM DMSO stock solutions. After 2 d, cells were harvested, washed twice with PBS buffer (PBS, pH 7.4, 0.1% FCS, 0.1% NaN3 w/v) and stained with FITC-HPA (1 μg/mL) or FITC-Con A (5 μg/mL with 1 mM CaCl2) in PBS, pH 7.4 in the dark for 1 h at 4° C. Cells were washed twice with PBS buffer, resuspended in 300 μL of PBS buffer and analyzed by flow cytometry (FacsCaliber, BD Instruments). Annexin-V staining was performed according to the manufacturer's protocols (Invitrogen).
To directly monitor ppGalNAcT activities in cells, Jurkat cells (human T-cell lymphoma), which are known to produce only the Tn-antigen (FIG. 1) as their O-linked glycans, were chosen. Piller et al. (1990) J. Biol. Chem. 265:9264-9271. Changes in Tn-antigen expression on the surface of Jurkat cells were monitored by HPA binding followed by flow cytometry analysis. Con A staining of N-linked glycans was used as a control for non-specific inhibition of protein glycosylation. Baenziger and Fiete (1979) J. Biol. Chem. 254:2400-2407.

[1] = molecular target: T2, UDP-GlcNAc/GalNAc C4-epimerase (Homo sapiens, UniProt Q14376); settings: Winans and Bertozzi (2002); cited from earlier work
T2 sequence (Q14376 1-348): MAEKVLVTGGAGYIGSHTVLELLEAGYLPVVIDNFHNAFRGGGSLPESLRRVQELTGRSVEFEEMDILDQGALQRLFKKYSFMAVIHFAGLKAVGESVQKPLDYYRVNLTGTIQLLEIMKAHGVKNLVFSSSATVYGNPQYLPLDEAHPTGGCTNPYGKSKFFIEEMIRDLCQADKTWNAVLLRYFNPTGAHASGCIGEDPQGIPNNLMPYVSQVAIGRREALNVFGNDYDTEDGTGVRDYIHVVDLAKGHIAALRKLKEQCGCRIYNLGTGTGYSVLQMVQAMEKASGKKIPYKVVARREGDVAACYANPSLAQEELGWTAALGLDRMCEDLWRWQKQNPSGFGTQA

[2] = tested on: UDP-galactopyranose mutase; settings: Scherman et al. (2003); cited from earlier work

Row | Compound | IC50 (mppGalNAcT-3) | Annexin-V staining (induction of apoptosis) (Jurkat cells) | identified in library screen against UDP-GlcNAc/GalNAc C4-epimerase [1] | identified in library screen against UDP-galactopyranose mutase [2]
1 | O=c1ccn([C@@H]2O[C@H](CON=Cc3ccc(O)c(O)c3O)[C@@H](O)[C@H]2O)c(=O)[nH]1 [1-68A] | 40 ± 2 µM | confirmed the induction of apoptosis | not identified | not identified
2 | O=C(CON=Cc1ccc(O)c(O)c1O)NC[C@H]1O[C@@H](n2ccc(=O)[nH]c2=O)[C@H](O)[C@@H]1O [2-68A] | 38 ± 4 µM | confirmed the induction of apoptosis | not identified | not identified
